Paper PMC6429502, “Synthesis and AChE-Inhibitory Activity of New Benzimidazole Derivatives” (Molecules, 2019)
“Also recorded” adds a separate entry of the source. Where two headings read alike, the source gives them in different places.

Key:
Assay type in all cases: biochemical
BChE = test system: BChE
Description: New benzimidazole-triazole derivatives were designed, synthesized, and evaluated for their potential to inhibit AChE and BChE. First, all the synthesized compounds were tested at 10^−3 M and 10^−4 M concentrations.
The inhibitory activities of the compounds against AChE and BChE were determined in 96-well plates by modified Ellman’s method as defined in our previous studies. Donepezil and tacrine were used as reference drugs. A robotic system, Biotek Precision XS (Winooski, VT, USA), was used for all pipetting processes in the enzyme inhibition assay. Measurements of the percentage inhibition were carried out at 412 nm by using a BioTek-Synergy H1 microplate reader (Winooski, VT, USA). Inhibition potencies of synthesized compounds and IC50 of selected derivatives were calculated as reported previously.

AChE [1] = biological target: T1, AChE (Electrophorus electricus, UniProt O42275); assay: Enzyme kinetic studies of AChE inhibition (Lineweaver-Burk plots, secondary plots); conditions: 2 × IC50, IC50 and IC50/2, substrate 600 µM to 18.75 µM
T1 sequence (O42275 24-633): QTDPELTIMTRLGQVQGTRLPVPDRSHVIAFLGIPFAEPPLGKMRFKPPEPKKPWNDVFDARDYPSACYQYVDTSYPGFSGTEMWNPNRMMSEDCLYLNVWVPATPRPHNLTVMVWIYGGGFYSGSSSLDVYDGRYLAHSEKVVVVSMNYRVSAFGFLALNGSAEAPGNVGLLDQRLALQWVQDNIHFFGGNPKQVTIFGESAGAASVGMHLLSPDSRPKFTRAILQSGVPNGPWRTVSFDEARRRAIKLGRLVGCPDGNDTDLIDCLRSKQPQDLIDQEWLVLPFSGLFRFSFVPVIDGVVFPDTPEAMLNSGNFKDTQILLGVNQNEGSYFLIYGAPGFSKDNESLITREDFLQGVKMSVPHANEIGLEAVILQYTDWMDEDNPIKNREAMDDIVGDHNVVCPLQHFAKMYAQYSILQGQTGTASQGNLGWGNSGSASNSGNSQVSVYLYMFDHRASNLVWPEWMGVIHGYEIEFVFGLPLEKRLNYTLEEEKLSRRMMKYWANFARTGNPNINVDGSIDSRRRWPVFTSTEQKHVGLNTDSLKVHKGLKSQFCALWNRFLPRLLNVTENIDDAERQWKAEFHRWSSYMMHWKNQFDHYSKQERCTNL
Description: Enzyme kinetic studies were carried out in order to determine the mechanism of AChE inhibition. The type of inhibition was forecast using linear Lineweaver-Burk plots. […] The initial velocity measurements were recorded by using different substrate concentrations ranging from 600 µM to 18.75 µM for AChE enzyme. The secondary plots of the Km/Vmax (slope) versus varying concentrations were used to calculate Ki (intercept on the x-axis) values of compounds [35]. The graphical analyses of the steady-state inhibition data for AChE enzyme are shown in Figure 1 and Figure 2, respectively.
Reversible inhibition consists of the following subtypes: mixed-type, competitive, uncompetitive, or noncompetitive. These types of inhibition can be determined with the help of Lineweaver-Burk plots. […] Namely, both compounds can bind to the free enzyme or the enzyme-substrate complex. […] It is known that these interactions occur quickly and can be easily reversed. Therefore, the enzyme and inhibitor complex is rapidly degraded immediately prior to irreversible inhibition. […] As a result, enzyme kinetics studies have shown the biological importance of compounds 3d and 3h due to their mixed type forces, unlike irreversible enzyme inhibitors.
Enzyme kinetic studies were performed for compounds 3d and 3h in order to determine the inhibition type on AChE. […]

AChE [2] = biological target: T1, AChE; assay: AChE inhibition, modified Ellman's method

| Compound | % Inhibition BChE (BChE; 10^−3 M) [%] | % Inhibition BChE (BChE; 10^−4 M) [%] | type of AChE inhibition (AChE [1]) | % Inhibition AChE (AChE [2]; 10^−3 M) [%] | % Inhibition of AChE (AChE [2]; 10^−5 M) [%] | % Inhibition of AChE (AChE [2]; 10^−6 M) [%] | % Inhibition of AChE (AChE [2]; 10^−7 M) [%] | % Inhibition of AChE (AChE [2]; 10^−8 M) [%] | % Inhibition of AChE (AChE [2]; 10^−9 M) [%] | % Inhibition AChE (AChE [2]; 10^−4 M) [%] | IC50 (AChE [2]; determined using 10^−3–10^−9 M concentrations) [nM] |
| --- | --- | --- | --- | --- | --- | --- | --- | --- | --- | --- | --- |
| Cn1c(SCC(=O)c2ccc(O)c(O)c2)nnc1-c1ccc(-c2nc3cc(Cl)ccc3[nH]2)cc1 [3d, 2-(4-(4-Methyl-5-(2-(3,4-dihydroxyphenyl)-2-oxo-ethylthio)-4H-1,2,4-triazol-3yl)-phenyl)-5(6)-chloro-1H-benzimidazole] | 51.19 ± 0.99 | 38.12 ± 0.41 | mixed type inhibition; also recorded: reversible inhibitors; also recorded: reversible and mixed-type | 98.55 ± 1.17 | 87.26 ± 1.28 | 78.85 ± 1.19 | 67.18 ± 0.92 | 45.32 ± 0.82 | 15.75 ± 0.48 |  |  |
| CCn1c(SCC(=O)c2ccc(O)c(O)c2)nnc1-c1ccc(-c2nc3cc(Cl)ccc3[nH]2)cc1 [3h, 2-(4-(4-Ethyl-5-(2-(3,4-dihydroxyphenyl)-2-oxo-ethylthio)-4H-1,2,4-triazol-3yl)-phenyl)-5(6)-chloro-1H-benzimidazole] | 61.26 ± 0.90 | 35.20 ± 0.42 | mixed type inhibition; also recorded: reversible inhibitors; also recorded: reversible and mixed-type | 98.25 ± 1.12 | 90.23 ± 1.03 | 81.25 ± 1.08 | 65.32 ± 0.97 | 44.28 ± 0.71 | 17.20 ± 0.58 |  |  |
| Cn1c(SCC(=O)c2ccc(Br)cc2)nnc1-c1ccc(-c2nc3cc(Cl)ccc3[nH]2)cc1 [3b, 2-(4-(4-Methyl-5-(2-(4-bromophenyl)-2-oxo-ethylthio)-4H-1,2,4-triazol-3yl)-phenyl)-5(6)-chloro-1H-benz-imidazole] | 28.15 ± 0.97 | 18.42 ± 0.88 |  | 44.20 ± 0.87 |  |  |  |  |  | 26.18 ± 0.63 |  |
| Cn1c(SCC(=O)c2ccc(C#N)cc2)nnc1-c1ccc(-c2nc3cc(F)ccc3[nH]2)cc1 [3i, 2-(4-(4-Methyl-5-(2-(4-cyanophenyl)-2-oxo-ethylthio)-4H-1,2,4-triazol-3yl)-phenyl)-5(6)-fluoro-1H-benz-imidazole] | 43.51 ± 0.78 | 18.49 ± 0.50 |  | 61.22 ± 1.02 |  |  |  |  |  | 38.28 ± 0.67 |  |
| Cn1c(SCC(=O)c2ccc(O)c(O)c2)nnc1-c1ccc(-c2nc3cc(F)ccc3[nH]2)cc1 [3l, 2-(4-(4-Methyl-5-(2-(3,4-dihydroxyphenyl)-2-oxo-ethylthio)-4H-1,2,4-triazol-3yl)-phenyl)-5(6)-fluoro-1H-benzimidazole] | 55.43 ± 0.47 | 29.88 ± 0.38 |  | 94.58 ± 1.74 | 73.18 ± 1.17 | 68.20 ± 0.97 | 48.11 ± 0.61 | 32.29 ± 0.58 | 18.77 ± 0.37 |  | 169 ± 7.2 |
| CCn1c(SCC(=O)c2ccc(C#N)cc2)nnc1-c1ccc(-c2nc3cc(F)ccc3[nH]2)cc1 [3m, 2-(4-(4-Ethyl-5-(2-(4-cyanophenyl)-2-oxo-ethylthio)-4H-1,2,4-triazol-3yl)-phenyl)-5(6)-fluoro-1H-benz-imidazole] | 48.11 ± 0.38 | 20.66 ± 0.45 |  | 59.03 ± 0.88 |  |  |  |  |  | 39.26 ± 0.46 |  |
| CCn1c(SCC(=O)c2ccc(C#N)cc2)nnc1-c1ccc(-c2nc3cc(Cl)ccc3[nH]2)cc1 [3e, 2-(4-(4-Ethyl-5-(2-(4-cyanophenyl)-2-oxo-ethylthio)-4H-1,2,4-triazol-3yl)-phenyl)-5(6)-chloro-1H-benz-imidazole] | 38.22 ± 0.63 | 22.41 ± 0.47 |  | 77.29 ± 1.06 |  |  |  |  |  | 41.22 ± 0.84 |  |
| CCn1c(SCC(=O)c2ccc(Br)cc2)nnc1-c1ccc(-c2nc3cc(Cl)ccc3[nH]2)cc1 [3f, 2-(4-(4-Ethyl-5-(2-(4-bromophenyl)-2-oxo-ethylthio)-4H-1,2,4-triazol-3yl)-phenyl)-5(6)-chloro-1H-benz-imidazole] | 29.15 ± 0.59 | 17.88 ± 0.40 |  | 47.22 ± 0.67 |  |  |  |  |  | 24.08 ± 0.48 |  |
| Cn1c(SCC(=O)c2ccc(Br)cc2)nnc1-c1ccc(-c2nc3cc(F)ccc3[nH]2)cc1 [3j, 2-(4-(4-Methyl-5-(2-(4-bromophenyl)-2-oxo-ethylthio)-4H-1,2,4-triazol-3yl)-phenyl)-5(6)-fluoro-1H-benz-imidazole] | 29.64 ± 0.87 | 21.44 ± 0.70 |  | 48.51 ± 0.88 |  |  |  |  |  | 18.39 ± 0.60 |  |
